Assay results reported in the Deep4Chem optical property database.

Experiment: photoluminescence quantum yield (fraction); solvent given as SMILES

Structure (SMILES): COc1cc2c(cc1/C=C/C1=CC(=C(C#N)C#N)CC(C)(C)C1)c1ccccc1n2C
- photoluminescence quantum yield (in C1CCOC1): 0.013
- photoluminescence quantum yield (in CC#N): 0.031
- photoluminescence quantum yield (in CCO): 0.021
- photoluminescence quantum yield (in CCOC(C)=O): 0.009
- photoluminescence quantum yield (in CN(C)C=O): 0.038
- photoluminescence quantum yield (in CS(C)=O): 0.059
- photoluminescence quantum yield (in Cc1ccccc1): 0.007
- photoluminescence quantum yield (in ClC(Cl)Cl): 0.018
- photoluminescence quantum yield (in ClCCl): 0.022

Structure (SMILES): CCOC(CN1C(=O)C2=C(c3ccsc3)N(CC(OCC)OCC)C(=O)C2=C1c1ccsc1)OCC
- photoluminescence quantum yield (in ClC(Cl)Cl): 0.9

Structure (SMILES): O=c1c2cc(I)ccc2nc2n1[B-](F)(F)[n+]1ccccc1-2
- photoluminescence quantum yield (in CC#N): 0.58
- photoluminescence quantum yield (in ClCCl): 0.73

Structure (SMILES): CC1(C)C(/C=C/c2cc3ccc(O)cc3oc2=O)=[N+](CCCS(=O)(=O)[O-])c2ccc(S(=O)(=O)O)cc21
- photoluminescence quantum yield (in CCO): 0.031
- photoluminescence quantum yield (in CS(C)=O): 0.012
- photoluminescence quantum yield (in O): 0.013

Structure (SMILES): c1ccc2c(c1)[nH]c1c3[nH]c4ccccc4c3c3nsnc3c21
- photoluminescence quantum yield (in CN(C)C=O): 0.05
- photoluminescence quantum yield (in Cc1ccccc1): 0.07
- photoluminescence quantum yield (in ClCCl): 0.06

Structure (SMILES): CC(C)c1cccc(C(C)C)c1-n1c(=O)c2ccc3c4ccc5c(=O)n(-c6c(C(C)C)cccc6C(C)C)c(=O)c6cc7c(-c8ccccc8)nc8cc(c1=O)c2c3c8c7c4c56
- photoluminescence quantum yield (in ClC(Cl)Cl): 0.74

Structure (SMILES): C(=C\c1ncnc2ccccc12)/c1ccc(N2CCCCC2)cc1
- photoluminescence quantum yield (in ClCCl): 0.12

Structure (SMILES): CC(C)c1cccc(C(C)C)c1N1C(=O)c2ccc3cc4c(cc5ccc6c7c(ccc4c57)C(=O)N(c4c(C(C)C)cccc4C(C)C)C6=O)c4ccc(c2c34)C1=O
- photoluminescence quantum yield (in ClCCl): 0.53

Structure (SMILES): Cc1ccccc1-c1cc(-c2ccc(N3c4ccccc4C(C)(C)c4ccccc43)cc2)nc(-c2ccccc2)n1
- photoluminescence quantum yield (in CC#N): 0.101
- photoluminescence quantum yield (in Cc1ccccc1): 0.777
- photoluminescence quantum yield (in ClCCl): 0.884

Structure (SMILES): c1ccc(-c2cn3ccc[n+]3[n-]2)cc1
- photoluminescence quantum yield (in ClCCl): 0.03

Structure (SMILES): CCOC(=O)/C(C#N)=C/c1cc2c3ccccc3n(C)c2cc1OC
- photoluminescence quantum yield (in C1CCOC1): 0.001
- photoluminescence quantum yield (in CC#N): 0.003
- photoluminescence quantum yield (in CCOC(C)=O): 0.004
- photoluminescence quantum yield (in CN(C)C=O): 0.005
- photoluminescence quantum yield (in CO): 0.003
- photoluminescence quantum yield (in CS(C)=O): 0.01
- photoluminescence quantum yield (in Cc1ccccc1): 0.003
- photoluminescence quantum yield (in ClC(Cl)Cl): 0.004
- photoluminescence quantum yield (in ClCCl): 0.003

Structure (SMILES): CN(C)c1ccc(C(=Cc2ccc(C=O)cc2)c2ccc(N(C)C)cc2)cc1
- photoluminescence quantum yield (in C1CCOC1): 0.059

Structure (SMILES): CC(C)(C)c1ccc2c(c1)c1cc(C(C)(C)C)ccc1n2-c1ccc(C#Cc2ccc(C#Cc3ccc(-n4c5ccc(C(C)(C)C)cc5c5cc(C(C)(C)C)ccc54)cc3)cc2)cc1
- photoluminescence quantum yield (in CC#N): 0.67
- photoluminescence quantum yield (in CCCCC): 0.89
- photoluminescence quantum yield (in CO): 0.41
- photoluminescence quantum yield (in Cc1ccccc1): 0.86
- photoluminescence quantum yield (in ClC(Cl)Cl): 0.69
- photoluminescence quantum yield (in ClCCl): 0.89

Structure (SMILES): COC(=O)c1cc(=O)n(C)c2cc(-c3cccc(OC)c3)sc12
- photoluminescence quantum yield (in CC#N): 0.32
- photoluminescence quantum yield (in ClCCl): 0.48

Structure (SMILES): COc1ccccc1C1=[N+]2C(=Cc3c4c(c(-c5ccccc5OC)n3[B-]2(F)F)C2CCC4CC2)C2=C1C1CCC2CC1
- photoluminescence quantum yield (in ClCCl): 0.77

Structure (SMILES): CCCCOC(=O)c1cc(Cl)c2c3c(Cl)cc4c5c(cc(Cl)c(c6c(Oc7ccc(C(=O)OC)cc7)cc(C(=O)OCCCC)c1c26)c53)C(=O)N(c1c(C(C)C)cccc1C(C)C)C4=O
- photoluminescence quantum yield (in Cc1ccccc1): 0.92

Structure (SMILES): CCOC(=O)c1ccccc1-c1c2ccc(=[N+](CC)CC)cc-2oc2cc(N(CC)CC)ccc12
- photoluminescence quantum yield (in CC#N): 0.39
- photoluminescence quantum yield (in CCO): 0.69
- photoluminescence quantum yield (in CN(C)C=O): 0.39
- photoluminescence quantum yield (in O): 0.34

Structure (SMILES): COC(=O)c1ccc(C2=C3C=CC(C)=[N+]3[B-](F)(F)n3c(C)ccc32)cc1
- photoluminescence quantum yield (in C1CCCCC1): 0.073
- photoluminescence quantum yield (in C1CCOC1): 0.056
- photoluminescence quantum yield (in CC#N): 0.039
- photoluminescence quantum yield (in CCOC(C)=O): 0.053
- photoluminescence quantum yield (in CO): 0.032
- photoluminescence quantum yield (in Cc1ccccc1): 0.12
- photoluminescence quantum yield (in ClC(Cl)Cl): 0.095

Structure (SMILES): COc1ccccc1-c1nc2c3ccccc3c3ccccc3c2n1-c1ccc(C)cc1
- photoluminescence quantum yield (in Cc1ccccc1): 0.284

Structure (SMILES): CCCN1/C(=C/C=C/C=C/C2=[N+](CCC)c3ccccc3C2(C)C)C(C)(C)c2ccccc21
- photoluminescence quantum yield (in CO): 0.27
- photoluminescence quantum yield (in CS(C)=O): 0.55
- photoluminescence quantum yield (in O): 0.05

Structure (SMILES): N#Cc1ccccc1N1c2ccccc2C(c2ccccc2)(c2ccccc2)c2ccccc21
- photoluminescence quantum yield (in Cc1ccccc1): 0.33

Structure (SMILES): CC(C)[Si](C#Cc1c2nsnc2c(C#C[Si](C(C)C)(C(C)C)C(C)C)c2nc3c(ccc4ccccc43)nc12)(C(C)C)C(C)C
- photoluminescence quantum yield (in CCCCCC): 0.42

Structure (SMILES): COC(=O)c1c(C(=O)OC)c2ccc(-c3ccccc3)nn2c1C
- photoluminescence quantum yield (in CCCCCC): 0.685

Structure (SMILES): N#CC(/N=C/c1ccccc1O)=C(C#N)/N=C/c1ccccc1O
- photoluminescence quantum yield (in CC#N): 0.017

Structure (SMILES): COc1ccc(N(c2ccccc2)c2ccc3ccc4c(N(c5ccccc5)c5ccc(OC)cc5)ccc5ccc2c3c54)cc1
- photoluminescence quantum yield (in ClCCl): 0.46
